Here are results for 7 molecules from paper PMC12527977, “Discovery of a novel tetrapeptide as glucose homeostasis modulator with bifunctionalities of targeting DPP‐IV and microbiota” (iMeta, 2025).

Data set [1] can be described thus: Simulated digestive stability of peptides (pepsase then trypsase). As to conditions: pig, relative to basal 100, sheet S2H; for remaining at 4 h, 5 mg/mL: pH 7, simulated digestion, after pepsase then trypsase, read-out: Peptide remaining, Trypsase; for remaining at 2 h, 5 mg/mL: porcine pepsase (simulated gastric digestion), pH 3, simulated digestion, after porcine pepsase, read-out: Peptide remaining, Pepsase. Type of data set: in vitro ADME, porcine. The method, then:
(§1) The in vitro digestibility of the peptides was determined according to the method described by Ohanenye et al. with some modifications. Briefly, 5.0 mg/mL peptides were mixed with 5000 U/mL porcine pepsase (pH 3.0). The mixture was incubated with continuous shaking in a water bath at 37 ℃ for 2 h. Then, the mixture was adjusted to pH 7.0, and a final concentration of 100 U/mL trypsase was added, followed by continuous shaking at 37 ℃ for another 2 h. After digestion, the enzyme was inactivated, and the mixture was incubated in a water bath (100 ℃) for 20 min. Subsequently, the mixture was centrifuged at 6000 rpm for 20 min, after which the supernatants were collected for further analysis. The concentrations of peptides in the digestions and TPH were determined via AB SCIEX QTrap 6600+ (AB Sciex, Framingham, Massachusetts).

The test system of data set [2] is porcine pepsase and trypsase. The data set is described as above. The format is in vitro ADME. As to conditions: in words; 5.0 mg/mL peptide, pepsase 5000 U/mL pH 3.0 37 °C 2 h, then trypsase 100 U/mL pH 7.0 37 °C 2 h, LC-MS. As for the experimental part: as §1
For data set [3], the target named is T1, DPP-IV (Homo sapiens, UniProt P27487). Description: DPP-IV inhibitory activity of peptides (DPP-IV-Glo Protease Assay Kit). As to conditions: for DPP-IV inhibitory activity: DPP-IV-Glo Protease Assay Kit, control = 0, sheet S2F, in % (unit assumed); for IC50: read-out: IC50. The format is biochemical. Set-up: purchased QiZheng Biotech (Shanghai, China) IBDPP0901.
Target sequence in this assay (P27487 whole entry): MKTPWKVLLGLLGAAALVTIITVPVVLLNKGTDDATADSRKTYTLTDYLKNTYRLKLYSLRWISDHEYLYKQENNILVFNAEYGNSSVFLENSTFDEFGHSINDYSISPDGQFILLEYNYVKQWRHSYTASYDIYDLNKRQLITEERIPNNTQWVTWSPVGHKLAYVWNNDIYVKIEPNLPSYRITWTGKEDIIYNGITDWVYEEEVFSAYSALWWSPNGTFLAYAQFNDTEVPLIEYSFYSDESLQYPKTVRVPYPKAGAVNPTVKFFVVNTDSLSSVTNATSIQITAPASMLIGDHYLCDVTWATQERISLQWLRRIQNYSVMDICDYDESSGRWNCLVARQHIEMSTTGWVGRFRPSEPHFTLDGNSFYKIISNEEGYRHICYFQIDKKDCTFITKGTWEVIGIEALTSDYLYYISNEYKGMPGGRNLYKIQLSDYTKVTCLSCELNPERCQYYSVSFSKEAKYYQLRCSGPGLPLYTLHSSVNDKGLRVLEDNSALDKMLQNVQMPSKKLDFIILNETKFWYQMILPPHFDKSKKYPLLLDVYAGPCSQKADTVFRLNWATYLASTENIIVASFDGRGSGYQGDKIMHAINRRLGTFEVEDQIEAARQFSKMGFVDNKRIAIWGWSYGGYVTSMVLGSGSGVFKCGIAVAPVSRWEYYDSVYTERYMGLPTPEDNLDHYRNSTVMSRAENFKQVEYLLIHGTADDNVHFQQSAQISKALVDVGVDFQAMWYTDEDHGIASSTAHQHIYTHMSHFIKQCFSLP

In data set [4] the test system is HFD-fed C57BL/6J mice. Description: HFD-fed mice, TPH/sitagliptin/HSP 8 weeks: FBG, OGTT, fasting insulin, HOMA-IR. The format is in vivo, mouse. Set-up: unit not given here. As to conditions: 8 weeks p.o. (Sit 12.5, TPH 80, HSP 320 mg/kg). As for the experimental part: (§2) To evaluate the hypoglycaemic activity of TPH, all mice were fed a high-fat diet (HFD, Research Diets, cat# D12492).
Oral glucose tolerance tests (OGTTs) were conducted following a 6-hour fasting period in mice. Blood glucose levels were assessed using a glucometer on tail vein blood samples at 0, 15, 30, 60, and 90 min after oral glucose administration with a dosage of 1.5 g/kg body weight. For insulin tolerance tests (ITTs), mice were intraperitoneal injected with insulin (0.8 U/kg body weight) after 6 h of fasting. […] The levels of active GLP-1, total GLP-1, and insulin were measured using the corresponding kits and normalized to the protein concentration (via a BCA protein assay).

For data set [5], the system named is HFD-fed C57BL/6J mice. Description: HFD-fed mice, TPH/sitagliptin/HSP 8 weeks: plasma NEFA, TG, TC, HDL-c, LDL-c. Type of data set: in vivo, mouse. The following applies: individual animals, n = 6, sheet S1U, listed as Sit. As for the experimental part:
as §2
The levels of plasma total cholesterol (TC), triacylglycerol (TG), high-density lipoprotein cholesterol (HDL-c), low-density lipoprotein cholesterol (LDL-c), nonesterified fatty acid (NEFA), tumour necrosis factor α (TNF α), and interleukin-1β (IL-1β) were determined by commercial kit (Nanjing Jiancheng Bioengineering Institute, Nanjing, China).

The subject of data set [6] is gut microbiota, A. muciniphila. Description: HFD-fed mice, TPH or sitagliptin 8 weeks: gut microbiota (16S rRNA). As to conditions: in words, 8 weeks p.o. Type of data set: in vivo, mouse. The text has this: To evaluate the hypoglycaemic activity of TPH, all mice were fed a high-fat diet (HFD, Research Diets, cat# D12492). […] Raw sequencing data were processed with QIIME2. In brief, the forward and reverse reads each were truncated at 200 bases. Taxonomy was assigned using the Greengenes reference (version 13.8) database. Analyses of alpha diversity (one-way ANOVA followed by Tukey’s post hoc test), beta diversity (weighted UniFrac distance followed by ANOSIM test), and bacterial taxonomic distributions were performed using MicrobiomeAnalyst.

The target of data set [7] is T1, DPP-IV. Description: Surface plasmon resonance (Biacore 8K, CM5 chip, 25 °C). Type of data set: binding. Also noted: purchased QiZheng Biotech (Shanghai, China) IBDPP0901. The following applies: SPR, Table S3; read-out: KD values. On the technique in general: SPR reads the build-up and loss of mass on a sensor chip optically.
The subject of data set [8] is A. muciniphila. Description: HFD-fed mice, VAMP and/or benzydamine 4 weeks: A. muciniphila abundance in faeces (qPCR). Type of data set: in vivo, mouse. As to conditions: in words, 50 mg/kg three times per week for 4 weeks.
Data set [9] deals with A. muciniphila. Description: Effect of different drugs (50 μM) on the growth of A. muciniphila. Type of data set: cell-based, Akkermansia muciniphila. As to conditions: in words; drugs at 50 μM.

Several values for one entry are separate records, joined by “and”; a condition that tells them apart may be missing. Identical values can stand only once. Counter-ions that a name gives are not always drawn. Like-named read-outs stand apart in the source and are kept apart here. Where a SMILES comes first, the peptide text is derived from it.

One may read the amount remaining as the share of the starting amount still present when the sample was taken. Broadly, the IC50 is the concentration at which inhibition is half-maximal. As a reminder, the Kd is a measure of binding affinity in units of concentration.

Regarding `NC(=O)CC[C@H](NC(=O)[C@@H]1CCCN1C(=O)[C@@H](N)Cc1ccccc1)C(=O)N[C@@H](CO)C(=O)O` [FPQS] (H-FPQS-OH), the amount remaining at 4 h, 5 mg/mL in data set [1] (replicate 1) is 85.1%; in data set [1] (replicate 2), 83.4%; in [1] (replicate 3), 87.9%. Further, the fraction remaining at 2 h, 5 mg/mL is 94.6% in data set [1] (replicate 1), 92.4% in data set [1] (replicate 2) and 92.7% in data set [1] (replicate 3). In addition, in [2], the “Resistance to simulated gastric pepsase and trypsase digestion” value is reported as “readily resistant”. Moreover, the DPP-IV inhibitory activity on DPP-IV [3] (replicate 1) was determined as 35.1258; on DPP-IV [3] (replicate 2), 29.3845; at DPP-IV [3] (replicate 3) it was 34.8747. Besides, the IC50 at DPP-IV [3] (Table S3) was 350 µM; on DPP-IV [3] (source data of heatmap Fig 1J) it was 80 µM.
With `N[C@@H](CC(=O)N1CCn2c(nnc2C(F)(F)F)C1)Cc1cc(F)c(F)cc1F` [Sitagliptin], the “AUC of the OGTT” value with HFD-fed C57BL/6J mice [4] (mouse 1 of group) was 27513; in the data set on HFD-fed C57BL/6J mice [4] (mouse 2 of group), 22668; with HFD-fed C57BL/6J mice [4] (mouse 3 of group) it was 23854.5; in the data set with HFD-fed C57BL/6J mice [4] (mouse 4 of group), 21897; with HFD-fed C57BL/6J mice [4] (mouse 5 of group), 22426.5; in the data set with HFD-fed C57BL/6J mice [4] (mouse 6 of group) it was 19386. Besides, the “Levels of fasting insulin” value worked out at 31.21 in the data set with HFD-fed C57BL/6J mice [4] (mouse 1 of group); 34.42 in the data set with HFD-fed C57BL/6J mice [4] (mouse 2 of group); 37.914 in the data set on HFD-fed C57BL/6J mice [4] (mouse 3 of group); 32.691 in the data set with HFD-fed C57BL/6J mice [4] (mouse 4 of group); 36.21 with HFD-fed C57BL/6J mice [4] (mouse 5 of group); 32.691 in the data set on HFD-fed C57BL/6J mice [4] (mouse 6 of group). The “Plasma HDL-c” value in the data set on HFD-fed C57BL/6J mice [5] is 2.289 and 2.058 and 2.182 and 2.361 and 2.149. In data set [6], the “Abundance of A. muciniphila in the intestine” value is given as “no effect”.
With `CC(C)[C@H](N)C(=O)N[C@@H](C)C(=O)N[C@@H](CC(=O)O)C(=O)N[C@@H](Cc1c[nH]c2ccccc12)C(=O)O` [VADW] (H-VADW-OH), the fraction remaining at 4 h, 5 mg/mL is 9.2% in [1] (replicate 1), 9.52% in data set [1] (replicate 2) and 7.78% in data set [1] (replicate 3). Besides, the fraction remaining at 2 h, 5 mg/mL in data set [1] (replicate 1) was 12.2%; in [1] (replicate 2), 14.3%; in data set [1] (replicate 3) it was 10.4%. Further, the DPP-IV inhibitory activity is 63.2506 on DPP-IV [3] (replicate 1), 57.5085 on DPP-IV [3] (replicate 2) and 57.0946 at DPP-IV [3] (replicate 3). Further, at DPP-IV [3] (Table S3), the IC50 was determined as 350 µM. For the same molecule, the Kd at DPP-IV [7] turned out to be 14 µM.
As for `CC(C)C[C@H](NC(=O)[C@H](CC(N)=O)NC(=O)[C@@H](N)Cc1ccc(O)cc1)C(=O)N1CCC[C@H]1C(=O)O` [YNLP] (H-YNLP-OH), the fraction remaining at 4 h, 5 mg/mL in data set [1] (replicate 1) was 98.7%; in data set [1] (replicate 2), 99%; in data set [1] (replicate 3), 100%. For the same molecule, the amount remaining at 2 h, 5 mg/mL in [1] (replicate 1) was 97.5%; in [1] (replicate 2), 99.8%; in data set [1] (replicate 3), 100%. Moreover, the “Resistance to simulated gastric pepsase and trypsase digestion” value in data set [2] is “readily resistant”. Besides, the DPP-IV inhibitory activity is 22.415 on DPP-IV [3] (replicate 1), 17.2115 at DPP-IV [3] (replicate 2) and 22.0674 on DPP-IV [3] (replicate 3). Besides, the IC50 on DPP-IV [3] (Table S3) was 510 µM. Besides, on DPP-IV [7], the Kd turned out to be 100 µM.
For the molecule `CSCC[C@H](NC(=O)[C@H](CC(C)C)NC(=O)[C@H](CCC(N)=O)NC(=O)[C@@H](N)Cc1ccc(O)cc1)C(=O)O` [YQLM] (H-YQLM-OH), the fraction remaining at 4 h, 5 mg/mL in data set [1] (replicate 1) is 14.3%; in data set [1] (replicate 2), 12.7%; in data set [1] (replicate 3), 9.83%. Further, the results for the amount remaining at 2 h, 5 mg/mL in data set [1] (replicate 2) and in data set [1] (replicate 3) were 14.7% and 15%, respectively. Moreover, the DPP-IV inhibitory activity at DPP-IV [3] (replicate 1) turned out to be 41.3327; at DPP-IV [3] (replicate 2), 38.0136; at DPP-IV [3] (replicate 3), 34.538. The IC50 on DPP-IV [3] (Table S3) was determined as 650 µM. Further, the Kd at DPP-IV [7] stood at 25.4 µM.
Consider `C[C@H](NC(=O)[C@H](Cc1ccc(O)cc1)NC(=O)[C@H](CO)NC(=O)[C@@H](N)Cc1ccc(O)cc1)C(=O)O` [YSYA] (H-YSYA-OH), for which the share remaining at 4 h, 5 mg/mL in [1] (replicate 1) was 3.01%; in data set [1] (replicate 2), 3.24%; in data set [1] (replicate 3), 4.18%. Also, the fraction remaining at 2 h, 5 mg/mL in [1] (replicate 1) was 17.8%; in data set [1] (replicate 2), 17.7%; in data set [1] (replicate 3) it was 15.2%. The DPP-IV inhibitory activity on DPP-IV [3] (replicate 1) is 27.0679; on DPP-IV [3] (replicate 2) it was 29.9267; on DPP-IV [3] (replicate 3), 30.8304. Besides, the IC50 at DPP-IV [3] (Table S3) is 410 µM. In addition, the Kd on DPP-IV [7] is 5.54 µM.
Turning to `CN(C)CCCOc1nn(Cc2ccccc2)c2ccccc12` [benzydamine, benzydamine hydrochloride], the “Abundance of A. muciniphila in faeces” value in the data set on A. muciniphila [8] is on record as “reduced the abundance of A. muciniphila to an extremely low level”. The “Growth of A. muciniphila” value in the data set on A. muciniphila [9] is reported as “specifically inhibit the growth of A. muciniphila”.
